Where “and” joins values, the source holds several entries; their conditions need not be identical. Equal entries are not always repeated. Calls of active or inactive are those of the source. How the calls were made is not given here.

The target in one assay is Prostaglandin E2 receptor EP2 subtype (Homo sapiens) (UniProt P43116). Put plainly: compounds shifting PGE2 potency at EP2 – cell-based, human EP2, PGE2 EC50 shift, dose response (AID 1421). As to conditions: EP2-expressing cells, PGE2 EC50 shift by compound.
Chain of Prostaglandin E2 receptor EP2 subtype (Homo sapiens) (P43116 whole entry, looked up): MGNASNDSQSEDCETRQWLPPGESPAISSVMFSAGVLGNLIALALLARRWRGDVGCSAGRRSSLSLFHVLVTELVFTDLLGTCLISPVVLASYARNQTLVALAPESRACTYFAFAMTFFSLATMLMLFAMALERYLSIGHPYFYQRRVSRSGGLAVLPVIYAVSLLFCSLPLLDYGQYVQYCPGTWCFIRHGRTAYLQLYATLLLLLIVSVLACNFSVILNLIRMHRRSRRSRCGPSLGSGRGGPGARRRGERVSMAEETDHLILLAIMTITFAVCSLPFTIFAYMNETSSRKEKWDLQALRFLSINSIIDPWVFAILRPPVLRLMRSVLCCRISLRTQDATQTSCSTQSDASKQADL
As for `C=CCSc1nc2sc(C)c(C)c2c(=O)n1CC=C`, the outcome was active.
Still for that read-out and setting: to `O=C1C2C3c4ccccc4C(c4ccccc43)[C@@H]2c2nc3ccccc3n21` (stereo partly drawn) belongs “active”.
The same measure, in the same setting: to `CCOC(=O)c1c(NC(=O)c2ccc(-n3cnnn3)cc2)sc2c1CCCC2` belongs “active”; to `COc1ncnc2c1oc1nc(CC(C)C)c3c(c12)CCCC3`, “active”; to `COc1ccc(S(=O)(=O)N2c3cc(C)ccc3OCC2C(C)(C)C)cc1` (stereo not drawn), “active”.
With `COC(=O)c1sc2nc(N3CCCCC3)c3c(c2c1N)CCCC3`, the result was active.
As for `Cc1ccc(-c2cc(C(F)(F)F)nn2-c2ccc(S(N)(=O)=O)cc2)cc1`, the result was active.
Turning to `Cn1c(=O)c(NC2CCCCC2)c2c3c(cccc31)C(=O)c1ccccc1-2`, the result was active.

The same assay, now with this note: EP2-expressing cells, PGE2 EC50 shift by compound; measured here: PGE2 EC50 at 6.7 uM compound.
Take `CCc1ccccc1NC(=S)N(Cc1ccco1)C(C)c1cccs1` (stereo not drawn): the PGE2 EC50 with compound was found to be 0.9 nM.
As to `COC(=O)c1ccc(-c2ccco2)n1Cc1ccccc1Cl`, the PGE2 EC50 with compound worked out at 1.03 nM.
Turning to `C=CCSc1nc2sc(C)c(C)c2c(=O)n1CC=C`, the PGE2 EC50 with compound turned out to be 0.83 nM.
On to `CCn1c2ccccc2c2cc(Nc3cc(C)nc4ncnn34)ccc21`, for which the PGE2 EC50 with compound was determined as 2.83 nM.
For `CCOC(=O)c1c(NC(=O)c2cccs2)sc2c1CCCC2`, the PGE2 EC50 with compound is 0.81 nM.
The same measure, in the same setting: next, `COc1cccc(C2=NN(C(=O)c3cccs3)C(O)(C(F)(F)F)C2)c1` (stereo not drawn): 1.44 nM; `Cc1cc(SC(C)C(=O)O)nc2ccccc12` (stereo not drawn): 1.18 nM; `O=C(O)c1nn(CC(=O)N(C2CCCCC2)C2CCCCC2)c(=O)c2ccccc12`: 1.12 nM.
Take `CCOC(=O)c1sc(NC(=O)CCN2CC(C)OC(C)C2)c(C(=O)OCC)c1C` (stereo not drawn): the PGE2 EC50 with compound was found to be 1.11 nM.
Still for that read-out and setting: to `O=C1C2C3c4ccccc4C(c4ccccc43)[C@@H]2c2nc3ccccc3n21` (stereo partly drawn) belongs 0.7 nM; to `COc1ccc(-c2c(C(C)=O)c(C)nc3sc4c(c23)NC(c2ccccc2)NC4=O)cc1` (stereo not drawn), 1.87 nM.
Still for that read-out and setting: next, `OC1(c2ccc(Br)cc2)CN(c2ccccc2)C2=[N+]1CCS2` (stereo not drawn): 1.17 nM.
Same read-out and setting: to `COc1ccc(C(=O)N2N=C(c3ccccc3)CC2(O)C(F)(F)F)cc1` (stereo not drawn) belongs 2.7 nM; to `COc1c2c(cc3occ(-c4ccc5c(c4)OCO5)c(=O)c13)OC(C)(C)C=C2`, 1.07 nM.
With `CCOc1ccccc1C(=O)Nc1ccsc1C(=O)OC`, the PGE2 EC50 with compound stood at 1.32 nM.
The same measure, in the same setting: next, `Cc1ccc(N(CC(=O)N/N=C/c2ccc(OC3CSC3)cc2)S(=O)(=O)c2ccccc2)cc1`: 1.01 nM.
Still for that read-out and setting: next, `CCOC(=O)c1c(NC(=O)c2ccc(-n3cnnn3)cc2)sc2c1CCCC2`: 0.85 nM.
Take `Cc1ccc(-n2c(Cc3cccc4ccccc34)n[nH]c2=S)c(C)c1`: the PGE2 EC50 with compound worked out at 0.68 nM.
As to `CCOC(=O)c1c(-c2ccc(C)cc2)csc1NC(=O)CCN1CC(C)OC(C)C1` (stereo not drawn), the PGE2 EC50 with compound is 0.68 nM.
On the same count and under the same terms, to `Cc1ccccc1-n1c(Cn2c(=O)sc3ccccc32)nnc1SCC(=O)N1CCCC1` belongs 1.05 nM; to `Cc1ccc(-n2nc3c(c2NC(=O)c2ccc(Br)o2)CSC3)c(C)c1`, 1.36 nM; to `CCC(=O)Oc1ccc2c(C)cc(=O)oc2c1C(=O)c1ccccc1`, 1 nM.
As for `COc1ncnc2c1oc1nc(CC(C)C)c3c(c12)CCCC3`, the PGE2 EC50 with compound came to 0.91 nM.
Still for that read-out and setting: next, `CC(=O)Nc1nnc(CCN2CCCCC2)s1`: 1.46 nM; `NC(=O)c1sc2nc(N3CCCCC3)c3c(c2c1N)CCCC3`: 2.62 nM; `COc1ccc(N2C(=O)N(Cc3ccc(C)cc3)c3ccccc3S2(=O)=O)cc1`: 2.81 nM.
The same measure, in the same setting: next, `CCOP(=O)(OCC)c1nc(-c2ccc(F)cc2)oc1NCc1ccccc1`: 1.09 nM.
On the same count and under the same terms, to `O=C(c1ccco1)N(CC1CCCO1)c1nc(-c2ccccc2)cs1` (stereo not drawn) belongs 0.61 nM.
For the compound `CCOC(=O)c1c(NC(=O)c2c(Br)cnn2CC)sc(C)c1C`, the PGE2 EC50 with compound is 0.9 nM.
In the case of `O=C(CN1CCCCC1)N1c2ccccc2Sc2ccc(C(F)(F)F)cc21`, the PGE2 EC50 with compound is 1.45 nM.
As to `O=C(c1ccccc1)N1N=C(c2ccccc2)CC1c1ccccc1O` (stereo not drawn), the PGE2 EC50 with compound worked out at 1.14 nM.
The same measure, in the same setting: to `O=C(c1cc2sccc2n1Cc1ccccc1)N1CCCc2ccccc21` belongs 1.3 nM.
Same read-out and setting: next, `Cc1ccc(-n2c(SCC(=O)Nc3ccc4c(c3)OCO4)nnc2-c2ccoc2C)cc1`: 1.18 nM; `CC(/C=C1\SC(=S)N(C(C(=O)O)C(C)C)C1=O)=C\c1ccccc1` (stereo not drawn): 0.86 nM.
Still for that read-out and setting: to `COc1ccc(C2=Nn3c(nnc3-c3ccccc3OC)SC2)cc1OC` belongs 0.93 nM; to `c1ccc(-c2noc(-c3ccccc3-c3ccccc3)n2)cc1`, 0.84 nM.
Consider `O=S(=O)(C=C(c1ccccc1)c1ccccc1)c1ccccc1`, for which the PGE2 EC50 with compound was determined as 2.7 nM.
On to `CC(=O)C1CC[C@H]2C3CC[C@H]4C[C@H](O)CC[C@]4(C)C3CC[C@]12C` (stereo partly drawn), for which the PGE2 EC50 with compound amounted to 0.89 nM.
On the same count and under the same terms, to `CCSc1ncnc2sc3c(c12)CCC3` belongs 0.94 nM; to `c1ccc(-c2n[nH]nc2-c2ccccc2)cc1`, 0.9 nM; to `CCC(=O)Oc1ccc(C(CC)C(CC)c2ccc(OC(=O)CC)cc2)cc1` (stereo not drawn), 0.32 nM.
The same measure, in the same setting: next, `COc1ccc(-c2nc3c(c(=O)[nH]c(=O)n3Cc3ccccc3)n2Cc2ccccc2)cc1`: 0.55 nM.
Turning to `Clc1ccc(-c2ccc(/C=N/Nc3cc(N4CCOCC4)nc(N4CCOCC4)n3)o2)cc1`, the PGE2 EC50 with compound came out at 2.85 nM.
On the same count and under the same terms, to `Nc1nc(Cc2ccccc2)nc(Cc2ccccc2)c1-c1ccccc1` belongs 0.79 nM; to `CCCCNc1nc(-c2ccccc2)c(C(=O)OCC)cc1C#N`, 0.88 nM.
Same read-out and setting: to `Cc1ccc(C(=O)N2N=C(c3ccccc3)CC2(O)C(F)(F)F)o1` (stereo not drawn) belongs 1.62 nM; to `O=S(=O)(c1ccc(F)cc1)c1snnc1-c1ccccc1`, 0.89 nM.
The same measure, in the same setting: to `CSc1nc2nccc(-c3ccc(-c4ccccc4)cc3)n2n1` belongs 0.87 nM; to `O=c1c(C=NCc2ccccc2)c(NCc2ccccc2)nc2ccccn12`, 0.96 nM; to `O=c1c2ccccc2n(Cc2ccc(Cl)cc2)c(=O)n1Cc1ccco1`, 0.82 nM.
`Clc1ccc(-c2nn3c(-c4ccccc4)nnc3s2)cc1`: the PGE2 EC50 with compound came to 0.93 nM.
For `CC(=O)Nc1sc2c(c1C(c1cccs1)N1CCOCC1)CCCC2` (stereo not drawn), the PGE2 EC50 with compound is 0.99 nM.
The same measure, in the same setting: to `CC(=O)O[C@@H]1c2c(ccc3ccc(=O)oc23)OC(C)(C)[C@@H]1OC(=O)CC(C)C` belongs 0.92 nM; to `CCn1c2ccc(OC)cc2c2nc3ccccc3nc21`, 2.47 nM.
Consider `Cc1cc2ccccn2c1C(=O)c1ccc(Cl)cc1`, for which the PGE2 EC50 with compound turned out to be 1.24 nM.
The same measure, in the same setting: next, `COc1ccc(N2CCN(c3nc4c(c(=O)[nH]c(=O)n4C)n3Cc3cccc(C)c3)CC2)cc1`: 0.7 nM; `C[N+]1(C)CCOC(O)(c2ccc(-c3ccc(C4(O)C[N+](C)(C)CCO4)cc3)cc2)C1` (stereo not drawn): 0.14 nM; `CSc1nnc(-c2cc3c(s2)-c2ccccc2CC3)o1`: 1.15 nM.
Consider `CCOC(=O)C1CCN(c2c(C(=O)c3ccccc3)cnc3ccc(Cl)cc23)CC1`, for which the PGE2 EC50 with compound turned out to be 0.89 nM.
On the same count and under the same terms, to `COc1ccc(S(=O)(=O)N2c3cc(C)ccc3OCC2C(C)(C)C)cc1` (stereo not drawn) belongs 0.75 nM; to `Cc1ccc(-c2cc3ccccc3nc2N2CCOCC2)cc1`, 1.45 nM; to `COc1ccc(C)cc1NC(=O)C1CC(=O)OC12CCCCC2` (stereo not drawn), 0.67 nM.
Turning to `O=C(O)c1ccc(-c2ccccc2Cl)o1`, the PGE2 EC50 with compound was 1.44 nM.
Still for that read-out and setting: next, `Cn1c(C(=O)N2CCCc3ccccc32)cc2sccc21`: 2.41 nM.
On the same count and under the same terms, next, `O=C(O)c1cc2cc(F)ccc2[nH]1`: 0.93 nM; `Cc1ccsc1-c1n[nH]c(=S)n1C1CCCCC1`: 1.2 nM; `COc1ccc(C(=O)c2ccccc2)c(O)c1`: 0.92 nM.
Same read-out and setting: next, `CCSc1nnc(-c2ccc(Cl)cc2)c2ccccc12`: 0.76 nM.
On to `O=C(O)CCSc1ccc2ccccc2n1`, for which the PGE2 EC50 with compound is 2.87 nM and 2.98 nM.
Still for that read-out and setting: next, `CCc1oc2ccccc2c1C(=O)c1cc(Br)c(O)c(Br)c1`: 1.02 nM and 0.68 nM; `Cc1cc(C)n(-c2nc(C)nc3c2cnn3-c2ccccc2)n1`: 1.43 nM; `CCOc1ccc(Cl)cc1S(=O)(=O)n1cnc2cc(C)c(C)cc21`: 1.16 nM.
Same read-out and setting: next, `COc1cc(C=O)ccc1OC(=O)c1ccc(C(C)C)cc1`: 1.44 nM; `N#CCSc1nc2ccccc2c(=O)n1C1CCCCC1`: 1.09 nM.
The same measure, in the same setting: next, `O=C(Nc1ccccc1Oc1ccccc1)c1ccccc1F`: 1.07 nM; `Cc1cccc(OCC(=O)Nc2ccccc2-c2ccccc2)c1`: 0.63 nM.
Regarding `COc1cccc2[nH]c3c(N4CCCC(C)C4)ncnc3c12` (stereo not drawn), the PGE2 EC50 with compound amounted to 23.2 nM.
The same measure, in the same setting: next, `Cc1cccc(-n2c(CCn3nc(C)c([N+](=O)[O-])c3C)n[nH]c2=S)c1`: 2.79 nM.
On to `N#Cc1c(N)nc2c3c(sc(=N)c2c1N)NC(=O)CC3c1c(F)cccc1Cl` (stereo not drawn), for which the PGE2 EC50 with compound turned out to be 0.74 nM.
`Cc1ccccc1S(=O)(=O)c1c(C)cc(C)n(C(C)C)c1=O`: the PGE2 EC50 with compound was found to be 0.83 nM.
Same read-out and setting: next, `O=C(Cc1ccccc1)Nc1ccccc1N1CCN(c2ccccc2)CC1`: 0.95 nM; `CCN(CC)c1ccc(/C=C2\C(=O)c3ccc(C(=O)O)cc3C2=O)cc1`: 1.04 nM.
The same measure, in the same setting: to `COC(=O)c1sc2nc(N3CCCCC3)c3c(c2c1N)CCCC3` belongs 0.85 nM.
Same read-out and setting: next, `Cc1ccc(-c2cc(C(F)(F)F)nn2-c2ccc(S(N)(=O)=O)cc2)cc1`: 1.28 nM; `CC(C)c1nc(Cl)c(C#N)c2c1CSC(C)(C)C2`: 0.85 nM; `S=C(Nc1ccccc1Cl)N(Cc1ccccc1)Cc1ccccn1`: 1.62 nM.
`O=C(O)c1csc(N/N=C/c2ccc(Br)cc2)n1`: the PGE2 EC50 with compound worked out at 0.89 nM.
As for `COc1ccc(-c2cc(C(F)(F)F)n3nc(C(=O)N(C)Cc4ccccc4)cc3n2)cc1OC`, the PGE2 EC50 with compound turned out to be 1.03 nM.
With `CC(=O)OCC(=O)[C@@]12OC(C)(C)O[C@@H]1C[C@H]1[C@H]3CC=C4C[C@@H](O)CC[C@]4(C)[C@@H]3CC[C@@]12C`, the PGE2 EC50 with compound was 0.97 nM.
As for `Cn1c(=O)c(NC2CCCCC2)c2c3c(cccc31)C(=O)c1ccccc1-2`, the PGE2 EC50 with compound is 0.55 nM.

Values taken from PubChem BioAssay AID1421 (Emory University Molecular Libraries Screening Center, 2008).
